System: retina explants from rd1 mice
Assay: in vitro organ culture of retina explants under serum-free conditions
Assay type: cell-based, mouse
Details: for Number of rows of photoreceptors average ± SD, (n): rd/rd retina explants, glutathione 3 μg/ml, ALA 2 μg/ml, zeaxanthin 0.3 μg/ml, lutein 0.3 μg/ml, control 1.5 ± 0.3
Experimental: The in vitro-experiments were performed on an organ culture of retina explants under serum-free conditions, as described in […], Ahuja P, Holmqvist B, Azadi […], van Veen T (2001) “Mouse retina explants after long-term culture in serum-free medium.”, J Chem Neuroanat 22: 263-273. The described technique was carried out on retina explants from rd1 mice as used in the in-vivo experiments. Retinas of rd1 mice were transferred at PN3 to an in vitro culture on flat nitrocellulose membranes and were kept in […] medium for 8 and 21 days, corresponding with the age PN11 and […] of the animals. All experiments were performed paired, wherein untreated retinas were compared to retinas which were exposed to a treatment. […] In order to achieve these concentrations the correct measured quantities of stock solution as described for the in vivo experiments were added to the medium. […] The rows of photoreceptors in the outer nuclear layer (ONL) were counted in 5 slices of each composition, wherein of each slice six different sections were analysed corresponding with the sections in the in vivo experiments. The differences between treated and untreated retinas were compared statistically with Student's paired t-test, or Student's unpaired t-test, wherein differences in which p<0.05 were deemed significant.

Row | SMILES | Number of rows of photoreceptors average ± SD, (n) | number of rows of photoreceptor cells, treated versus untreated explant (rd1 explant, FIGS. 6a and 6b)
1 | CC1=C[C@H](O)CC(C)(C)[C@H]1/C=C/C(C)=C/C=C/C(C)=C/C=C/C=C(C)/C=C/C=C(C)/C=C/C1=C(C)C[C@@H](O)CC1(C)C [Lutein, (3R, 3′R, 6′R)-(3,c-carotene-3,3′-diol] | 2.0 ± 0.8 (n-6) rows | –
2 | CC1=C(/C=C/C(C)=C/C=C/C(C)=C/C=C/C=C(C)/C=C/C=C(C)/C=C/C2=C(C)C[C@@H](O)CC2(C)C)C(C)(C)C[C@H](O)C1 [zeaxanthin, (3R, 3′R)-β,β-carotene-3,3′-diol] | 1.9 ± 0.7 (n-6) rows | –
3 | N[C@@H](CCC(=O)N[C@@H](CS)C(=O)NCC(=O)O)C(=O)O [glutathione, L-glutathione] | 2.0 ± 0.9 (n-6) rows | almost the same
4 | O=C(O)CCCCC1CCSS1 (stereo not drawn) [alpha lipoic acid, thioctic acid] | 1.8 ± 0.5 (n-6) rows | –

— patent US20100233145A1, “COMPOSITION USED AS A NUTRITIONAL SUPPLEMENT AND MEDICATION FOR THE TREATMENT OF DEGENERATIVE VISUAL DISORDERS AND INFLAMMATION” (APO PHARMACEUTICALS INTERNATIONAL B.V., priority 2006, published 2010)
